# Counter-ions that a name gives are not always drawn. Like-named read-outs stand apart in the source and are kept apart here.
# How the values were obtained:
# [1] = molecular target: T1, SARS-CoV-2 PLpro (nsp3 1564–1878) (Severe acute respiratory syndrome coronavirus 2, UniProt P0DTD1); assay: biochemical; design: FRET-quenched peptide (Pro3) cleavage by PLpro, 10 min pre-incubation, slope over 20 min, normalised to no-compound control; conditions: low concentration screen, read-out: % of control remaining
# [2] = molecular target: T1, SARS-CoV-2 PLpro (nsp3 1564–1878); assay: biochemical; design: FRET-quenched peptide (Pro3) cleavage by PLpro, 10 min pre-incubation, slope over 20 min, normalised to no-compound control; conditions: high concentration screen, read-out: % of control remaining
smiles,measurement,setting,value
COc1ccc([C@@H]2CC(=O)c3c(O)cc(O[C@@H]4O[C@H](CO[C@@H]5O[C@@H](C)[C@H](O)[C@@H](O)[C@H]5O)[C@@H](O)[C@H](O)[C@H]4O)cc3O2)cc1OC [Methyl-Hesperidin],remaining activity at 1.25 µM,[1]; Well no.=4864,98.4%
same,remaining activity at 3.75 µM,[2]; Well no.=4864,99.3%
CCCN(CCC)C1Cc2cc(OC)c(OC)cc2C1 [U-99194A maleate],remaining activity at 1.25 µM,[1]; Well no.=1192,100%
same,remaining activity at 3.75 µM,[2]; Well no.=1192,99.6%
NC12CC3CC(CC(C3)C1)C2 [Amantadine.HCl],remaining activity at 1.25 µM,[1]; Well no.=1653,97.9%
same,remaining activity at 3.75 µM,[2]; Well no.=1653,97.4%
C[C@@H]1CN(C(=O)Nc2ccc(-c3nc(N4CCOCC4)c4cnn(CCCCCCC(=O)NO)c4n3)cc2)CCO1 [HDACs/mTOR Inhibitor 1],remaining activity at 1.25 µM,[1]; Well no.=6964,96.4%
same,remaining activity at 3.75 µM,[2]; Well no.=6964,93.8%
"CCCN(CCC)CC1CCCCN1CCNC(=O)N1c2ccccc2C(=O)Nc2cccnc21 (stereo not shown) [N-(2-{2-[(dipropylamino)methyl]-1-piperidinyl}ethyl)-6-oxo-5,6-dihydro-11H-pyrido[2,3-b][1,4]benzodiazepine-11-carboxamide]",remaining activity at 1.25 µM,[1]; Well no.=5609,101%
same,remaining activity at 3.75 µM,[2]; Well no.=5609,101%
CSC[C@H]1O[C@@H](n2cnc3c(N)ncnc32)[C@H](O)[C@@H]1O [5'-Methylthioadenosine],remaining activity at 1.25 µM,[1]; Well no.=6295,102%
same,remaining activity at 1.25 µM,[1]; Well no.=7812,105%
same,remaining activity at 3.75 µM,[2]; Well no.=6295,103%
same,remaining activity at 3.75 µM,[2]; Well no.=7812,106%
CCCCC1OC(=O)C2=CCCCC21 (stereo not shown) [Sedanolide],remaining activity at 1.25 µM,[1]; Well no.=3751,92.6%
same,remaining activity at 3.75 µM,[2]; Well no.=3751,98.7%
OC[C@H]1O[C@@H](c2ccc(Cl)c(Cc3ccc(O[C@H]4CCOC4)cc3)c2)[C@H](O)[C@@H](O)[C@@H]1O [Empagliflozin (BI 10773)],remaining activity at 1.25 µM,[1]; Well no.=8724,98.6%
same,remaining activity at 3.75 µM,[2]; Well no.=8724,91.3%
Clc1ccc(C2(c3ccc(-c4cn[nH]c4)cc3)CCNCC2)cc1 [AT7867],remaining activity at 1.25 µM,[1]; Well no.=5295,95.9%
same,remaining activity at 3.75 µM,[2]; Well no.=5295,96.7%
CC1(C)CCC(CN2CCN(c3ccc(C(=O)NS(=O)(=O)c4ccc(NCC5CCOCC5)c([N+](=O)[O-])c4)c(Oc4cnc5[nH]ccc5c4)c3)CC2)=C(c2ccc(Cl)cc2)C1 [Venetoclax],remaining activity at 1.25 µM,[1]; Well no.=6396,107%
same,remaining activity at 1.25 µM,[1]; Well no.=7400,91.2%
same,remaining activity at 3.75 µM,[2]; Well no.=6396,104%
same,remaining activity at 3.75 µM,[2]; Well no.=7400,94.7%
CC(=O)c1ccc2c(c1)[C@H](NC(=O)c1ccc(F)c(Cl)c1)[C@H](O)C(C)(C)O2 [Tonabersat],remaining activity at 1.25 µM,[1]; Well no.=5960,92.7%
same,remaining activity at 3.75 µM,[2]; Well no.=5960,94.8%
Nc1[nH]nc2nc3ccccc3nc12 [Cdk1/5 Inhibitor],remaining activity at 1.25 µM,[1]; Well no.=2370,96.8%
same,remaining activity at 3.75 µM,[2]; Well no.=2370,98.7%
Cn1c(=O)[nH]c(=O)c2[nH]cnc21 [3-Methylxanthine],remaining activity at 1.25 µM,[1]; Well no.=6777,106%
same,remaining activity at 3.75 µM,[2]; Well no.=6777,102%
CCCCc1ncc(/C=C(\Cc2cccs2)C(=O)O)n1Cc1ccc(C(=O)O)cc1 [Eprosartan mesylate],remaining activity at 1.25 µM,[1]; Well no.=1882,98.4%
same,remaining activity at 3.75 µM,[2]; Well no.=1882,99.1%
C[N+]1(C)[C@@H]2C[C@@H](OC(=O)C(O)(c3cccs3)c3cccs3)C[C@H]1[C@@H]1O[C@@H]12 [Tiotropium (Bromide)],remaining activity at 1.25 µM,[1]; Well no.=7533,96.7%
same,remaining activity at 3.75 µM,[2]; Well no.=7533,95.1%
C[C@H](Nc1ccc(Cl)cc1)C(=O)O (racemic),remaining activity at 1.25 µM,[1]; Well no.=230,95.2%
same,remaining activity at 3.75 µM,[2]; Well no.=230,97.1%
Cc1[nH]nc2ccc(-c3cncc(OC[C@@H](N)Cc4ccccc4)c3)cc12 [A-674563],remaining activity at 1.25 µM,[1]; Well no.=2991,97%
same,remaining activity at 3.75 µM,[2]; Well no.=2991,99.1%
CNc1nccc(-c2cccnc2Oc2cc(C(=O)Nc3cccc(C(F)(F)F)c3)ccc2C)n1 [AMG-Tie2-1],remaining activity at 1.25 µM,[1]; Well no.=2788,97.1%
same,remaining activity at 3.75 µM,[2]; Well no.=2788,94.9%
Cc1ccc(O)c([C@H](CCN(C(C)C)C(C)C)c2ccccc2)c1 [Tolterodine tartrate (Detrol LA)],remaining activity at 1.25 µM,[1]; Well no.=4918,98%
same,remaining activity at 3.75 µM,[2]; Well no.=4918,94.6%
CCCCCCCCCCCCCCCCCCCC(=O)O [Eicosanoic acid],remaining activity at 1.25 µM,[1]; Well no.=4400,94.6%
same,remaining activity at 3.75 µM,[2]; Well no.=4400,93.4%
C[C@]12CC[C@@H]3c4ccc(O)cc4CC[C@H]3[C@@H]1CC[C@@H]2O [beta-Estradiol],remaining activity at 1.25 µM,[1]; Well no.=511,107%
same,remaining activity at 3.75 µM,[2]; Well no.=511,104%
CC(C)(C)c1cc(O)ccc1O [tert-Butylhydroquinone],remaining activity at 1.25 µM,[1]; Well no.=3861,98%
same,remaining activity at 3.75 µM,[2]; Well no.=3861,97.9%
CC(C)Cc1ccc([C@@H](C)C(=O)NS(C)(=O)=O)cc1 [Reparixin (L-lysine salt)],remaining activity at 1.25 µM,[1]; Well no.=8059,100%
same,remaining activity at 1.25 µM,[1]; Well no.=8125,104%
same,remaining activity at 3.75 µM,[2]; Well no.=8059,99.6%
same,remaining activity at 3.75 µM,[2]; Well no.=8125,104%
Nc1ncnc2c1c(-c1cnc3[nH]ccc3c1)nn2C1CCCC1 [PP-121],remaining activity at 1.25 µM,[1]; Well no.=4958,91%
same,remaining activity at 3.75 µM,[2]; Well no.=4958,92.2%
O=C(c1ccc2c(c1)OCCO2)N1CCCCC1 [CX 546],remaining activity at 1.25 µM,[1]; Well no.=729,103%
same,remaining activity at 3.75 µM,[2]; Well no.=729,99.5%
Nc1nccc(Oc2ccc(NC(=O)c3c[nH]cc(-c4ccc(F)cc4)c3=O)cc2F)c1Cl [BMS 794833],remaining activity at 1.25 µM,[1]; Well no.=5150,100%
same,remaining activity at 3.75 µM,[2]; Well no.=5150,96.4%
CC(C)Oc1cccnc1N(C)C1CCN(Cc2ccc(I)cc2)CC1 [RBI-257 maleate],remaining activity at 1.25 µM,[1]; Well no.=1402,103%
same,remaining activity at 3.75 µM,[2]; Well no.=1402,105%
COc1ccc2cc([C@@H](C)C(=O)O)ccc2c1 [(-)-Naproxen sodium],remaining activity at 1.25 µM,[1]; Well no.=1110,95.3%
same,remaining activity at 3.75 µM,[2]; Well no.=1110,97.6%
CC(C)(C)c1ccc(C(O)CCCN2CCC(C(O)(c3ccccc3)c3ccccc3)CC2)cc1 (stereo not shown) [Terfenadine],remaining activity at 1.25 µM,[1]; Well no.=1232,100%
same,remaining activity at 1.25 µM,[1]; Well no.=1742,97.7%
same,remaining activity at 1.25 µM,[1]; Well no.=6598,103%
same,remaining activity at 3.75 µM,[2]; Well no.=1232,102%
same,remaining activity at 3.75 µM,[2]; Well no.=1742,98.6%
same,remaining activity at 3.75 µM,[2]; Well no.=6598,104%
"Cn1c(O)c(-c2[nH]c3ccccc3c2N=O)c2ccc(Br)cc21 [GSK-3 Inhibitor IX, Control, MeBIO]",remaining activity at 1.25 µM,[1]; Well no.=2427,106%
same,remaining activity at 3.75 µM,[2]; Well no.=2427,108%
"Brc1c(Br)c(Br)c2n[nH]nc2c1Br [TBB - 4,5,6,7-Tetrabromobenzotriazole]",remaining activity at 1.25 µM,[1]; Well no.=2494,100%
same,remaining activity at 3.75 µM,[2]; Well no.=2494,103%
COc1cc([C@@H]2c3cc4c(cc3[C@H](O)[C@H]3COC(=O)[C@H]23)OCO4)cc(OC)c1OC [Podophyllotoxin],remaining activity at 1.25 µM,[1]; Well no.=1002,91.2%
same,remaining activity at 1.25 µM,[1]; Well no.=3705,99.5%
same,remaining activity at 3.75 µM,[2]; Well no.=1002,92.3%
same,remaining activity at 3.75 µM,[2]; Well no.=3705,105%

# Reference: publication PMC8286840, “Identifying SARS-CoV-2 antiviral compounds by screening for small molecule inhibitors of Nsp3 papain-like protease” (Biochemical Journal, 2021)
